Assay results: patent publication US10077241B2 (Janssen Pharmaceutica NV, priority 2014, dated 2018)

Legend:
TGR5 (STC1 cell line) = target: T1, TGR5 (STC1 cell line) (Mus musculus, UniProt Q80SS6); experiment: STC1 cAMP Agonist EC50 Determination
T1 sequence (Q80SS6 1-329): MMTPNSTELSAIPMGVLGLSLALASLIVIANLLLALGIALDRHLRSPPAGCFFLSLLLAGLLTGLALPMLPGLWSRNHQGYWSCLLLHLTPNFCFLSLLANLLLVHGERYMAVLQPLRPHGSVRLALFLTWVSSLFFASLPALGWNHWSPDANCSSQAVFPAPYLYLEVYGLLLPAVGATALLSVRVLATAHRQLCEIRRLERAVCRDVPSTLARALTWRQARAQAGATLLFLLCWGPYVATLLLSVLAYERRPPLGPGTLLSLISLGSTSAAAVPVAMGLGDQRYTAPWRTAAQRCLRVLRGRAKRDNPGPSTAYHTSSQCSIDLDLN
Method: Cell stocks were maintained and grown in a sub-confluent state using standard cell culture procedures. The day before the experiment, the cells were harvested with non-enzymatic cell dissociation buffer and resuspended in complete growth media at 4E5 c/ml. […] The seeded plates were incubated overnight at 37° C.
On the day of the experiment, Assay Buffer containing: HBSS with Ca^2+and Mg^2+; 5 μM HEPES; 0.1% BSA; and, 0.5 μM IBMX was prepared. The growth medium was washed from the cell plates and replaced with 20 μL of Assay Buffer. […] The reaction was stopped by the addition of 20 μL 0.1% Formic Acid to all wells. Sixty minutes later 30 μL 3 M deuterated AMP was added to all wells (as a control for volume addition to the mass spec). Plates were mixed on a plate shaker for 1 min and centrifugated (5 min 3000 RPMs no brakes).
Plates were run on a 4000 QTrap triple-quadrapole Mass spectrometer in positive ion mode coupled with a Biocius RapidFire 300is. […] Two ions (cAMP and deuterated AMP were measured using Multiple Reaction Monitoring (MRM) in positive ion mode and the area under the curve (AUC) was determined for each of the ions.
The data from the Mass Spec/Rapid Plate AUC for cAMP and deuterated AMP were imported to an Excel worksheet. A Normalized signal (NS) was generated for each well=(cAMP AUC for the well/deut AMP AUC for the well)*average deut AMP AUC for the plate). nM cAMP was calculated for each well from the cAMP standard curves located on each plate by first calculating the slope and deriving the intercept (b).
EC50 values were determined from a 4-point fit (Hill equation) of a single 11-point compound dosing.

[1] = target: T2, TGR5 (NCI-H716 cell line) (Homo sapiens, UniProt Q8TDU6); experiment: NCI-H716 cAMP Agonist EC50 Determination
T2 sequence (Q8TDU6 1-330): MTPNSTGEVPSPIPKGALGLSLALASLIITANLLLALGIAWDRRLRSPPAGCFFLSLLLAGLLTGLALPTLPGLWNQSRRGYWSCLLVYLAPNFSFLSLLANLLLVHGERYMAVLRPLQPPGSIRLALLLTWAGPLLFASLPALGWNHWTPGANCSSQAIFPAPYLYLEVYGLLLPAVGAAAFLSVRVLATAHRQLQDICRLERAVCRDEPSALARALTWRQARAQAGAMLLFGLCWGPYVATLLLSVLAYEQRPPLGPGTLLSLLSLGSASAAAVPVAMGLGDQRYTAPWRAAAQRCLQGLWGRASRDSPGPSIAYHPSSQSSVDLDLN

Structure (SMILES) | EC50 (TGR5 (STC1 cell line)) | EC50 [1]
COc1cc(C2(C)CCCc3nc(SCc4c(F)cc(C(=O)N(C)C)cc4F)n(-c4ccc(F)cc4)c32)ccc1Cl (stereo not drawn) [Example 92, 4-([[7-(4-chloro-3-methoxyphenyl)-1-(4-fluorophenyl)-7-methyl-4,5,6,7-tetrahydro-1H-1,3-benzodiazol-2-yl]sulfanyl]methyl)-3,5-difluoro-N,N-dimethylbenzamide] | 0.12 µM | 18.1 µM
COC(=O)[C@H](CCCNC(=N)N)NC(=O)c1cc(F)c(CSc2nc3c(n2-c2ccc(F)cc2)C(C)(c2ccc(Cl)c(OC)c2)CCC3)c(F)c1 (stereo partly drawn) [Example 82, (S)-methyl 2-(4-((7-(4-chloro-3-methoxyphenyl)-1-(4-fluorophenyl)-4,5,6,7-tetrahydro-7-methyl-1H-benzo[d]imidazol-2-ylthio)methyl)-3,5-difluorobenzamido)-5-guanidinopentanoate trifluoroacetic acid] | 0.18 µM | 15.2 µM
COc1cc(C2(C)CCCc3nc(SCc4ccccc4)n(-c4ccc(F)cc4)c32)ccc1Cl (stereo not drawn) [Example 87, 2-(benzylsulfanyl)-7-(4-chloro-3-methoxyphenyl)-1-(4-fluorophenyl)-7-methyl-4,5,6,7-tetrahydro-1H-1,3-benzodiazole] | 47.8 µM | > 50 µM
COc1ccc(C2(C)CCCc3nc(SCc4c(F)cccc4[N+](=O)[O-])n(-c4ccc(F)cc4)c32)cc1OC (stereo not drawn) [Example 115, 7-(3,4-dimethoxyphenyl)-2-((2-fluoro-6-nitrobenzyl)thio)-1-(4-fluorophenyl)-7-methyl-4,5,6,7-tetrahydro-1H-benzo[d]imidazole] | 0.22 µM | 2.6 µM
COc1cc(C2OCCc3nc(SCc4c(F)cc(OCCOCCOCCCl)cc4F)n(-c4ccc(F)cc4)c32)ccc1Cl (stereo not drawn) [Example 133, 4-(4-chloro-3-methoxyphenyl)-2-((4-(2-(2-(2-chloroethoxy)ethoxy)ethoxy)-2,6-difluorobenzyl)thio)-3-(4-fluorophenyl)-3,4,6,7-tetrahydropyrano[3,4-d]imidazole] | 6.07 µM | > 50 µM
COCCOCCOCCOCCNC(=O)c1cc(F)c(CSc2nc3c(n2-c2ccc(F)cc2)C(c2cc(OC)c(OC)cc2Br)CCC3)c(F)c1 (stereo not drawn) [Example 68a, 4-(((7-(2-bromo-4,5-dimethoxyphenyl)-1-(4-fluorophenyl)-4,5,6,7-tetrahydro-1H-benzo[d]imidazol-2-yl)thio)methyl)-3,5-difluoro-N-(2,5,8,11-tetraoxatridecan-13-yl)benzamide] | 7.39 µM | 22 µM
COc1ccc(C2(C)CCCc3nc(SCc4nccs4)n(-c4ccc(F)cc4)c32)cc1OC (stereo not drawn) [Example 117, 2-(((7-(3,4-dimethoxyphenyl)-1-(4-fluorophenyl)-7-methyl-4,5,6,7-tetrahydro-1H-benzo[d]imidazol-2-yl)thio)methyl)thiazole] | 0.41 µM | 2.65 µM
COc1cc(C2CCCc3nc(SCc4c(F)cccc4Cl)n(-c4ccc(F)c(F)c4F)c32)ccc1Cl (stereo not drawn) [Example 9, 7-(4-chloro-3-methoxyphenyl)-2-((2-chloro-6-fluorobenzyl)thio)-1-(2,3,4-trifluorophenyl)-4,5,6,7-tetrahydro-1H-benzo[d]imidazole] | 9.86 µM | > 50 µM
COc1cc(C2CCCc3nc(SCc4c(F)cc(C(=O)O)cc4F)n(-c4ccc(F)cc4)c32)ccc1F (stereo not drawn) [Example 74, 3,5-difluoro-4-(((7-(4-fluoro-3-methoxyphenyl)-1-(4-fluorophenyl)-4,5,6,7-tetrahydro-1H-benzo[d]imidazol-2-yl)thio)methyl)benzoic acid] | 1.1 µM | > 50 µM
COCCOCCOCCOCCNC(=O)c1cc(F)c(CSc2nc3c(n2-c2ccc(F)cc2)C(c2cc(OC)c(OC)c(Br)c2Br)CCC3)c(F)c1 (stereo not drawn) [Example 68b, 4-(((7-(2,3-dibromo-4,5-dimethoxyphenyl)-1-(4-fluorophenyl)-4,5,6,7-tetrahydro-1H-benzo[d]imidazol-2-yl)thio)methyl)-3,5-difluoro-N-(2,5,8,11-tetraoxatridecan-13-yl) benzamide] | 28.6 µM | > 50 µM
COc1cc(C2CCCc3nc(SCc4c(F)ccc(OCCN(C)C)c4F)n(-c4ccc(F)cc4)c32)ccc1Cl (stereo not drawn) [Example 31, [2-[3-([[17-(4-chloro-3-methoxyphenyl)-1-(4-fluorophenyl)-4,5,6,7-tetrahydro-1H-1,3-benzodiazol-2-yl]sulfanyl]methyl)-2,4-difluorophenoxy]ethyl]dimethylamine] | 4.1 µM | 4.44 µM
COc1ccc(C2(C)CCCc3nc(SCc4c(F)cc(C(N)=O)cc4F)n(-c4ccc(F)cc4)c32)cc1OC (stereo not drawn) [Example 104, 4-(((7-(3,4-dimethoxyphenyl)-1-(4-fluorophenyl)-7-methyl-4,5,6,7-tetrahydro-1H-benzo[d]imidazol-2-yl)thio)methyl)-3,5-difluorobenzamide] | 0.17 µM | 0.9 µM
COc1ccc(C2CCCc3nc(SCc4c(F)cc(C(=O)O)cc4F)n(-c4ccc(F)cc4)c32)cc1OC (stereo not drawn) [Example 65, 4-(((7-(3,4-dimethoxyphenyl)-1-(4-fluorophenyl)-4,5,6,7-tetrahydro-1H-benzo[d]imidazol-2-yl)thi)methyl)-3,5-difluorobenzoic acid] | 3.75 µM | > 50 µM
COc1cc(C2CCCc3nc(SCc4c(F)cc(CCCN(C)C)cc4F)n(-c4ccc(F)cc4)c32)ccc1Cl (stereo not drawn) [Example 39b, 3-(4-((7-(4-chloro-3-methoxyphenyl)-1-(4-fluorophenyl)-4,5,6,7-tetrahydro-1H-benzo[d]imidazol-2-ylthio)methyl)-3,5-difluorophenyl)-N,N-dimethylpropan-1-amine trifluoroacetic acid] | 16.3 µM | > 50 µM
COc1cc(C2CCCc3nc(SCc4ccncc4F)n(-c4ccc(F)cc4)c32)ccc1Cl (stereo not drawn) [Example 51, 2-((3-fluoropyridin-4-yl)methylthio)-7-(4-chloro-3-methoxyphenyl)-1-(4-fluorophenyl)-4,5,6,7-tetrahydro-1H-benzo[d]imidazole trifluoroacetic acid] | 5.5 µM | > 50 µM
COc1cccc(C2CCCc3nc(SCc4c(F)cncc4F)n(-c4ccc(F)cc4)c32)c1 (stereo not drawn) [Example 71, 2-(((3,5-difluoropyridin-4-yl)methyl)thio)-1-(4-fluorophenyl)-7-(3-methoxyphenyl)-4,5,6,7-tetrahydro-1H-benzo[d]imidazole] | 1.91 µM | > 50 µM
COc1cc(C2(C)CCCc3nc(SCc4c(F)ccc(OCCN(C)C)c4F)n(-c4ccc(F)cc4)c32)ccc1Cl (stereo not drawn) [Example 96, 2-(3-((7-(4-chloro-3-methoxyphenyl)-1-(4-fluorophenyl)-7-methyl-4,5,6,7-tetrahydro-1H-benzo[d]imidazol-2-ylthio)methyl)-2,4-difluorophenoxy)-N,N-dimethylethanamine trifluoroacetic acid] | 13.4 µM | > 50 µM
COc1cc(C2CCCc3nc(SCc4ncccc4F)n(-c4ccc(F)cc4)c32)ccc1Cl (stereo not drawn) [Example 52, 2-((3-fluoropyridin-2-yl)methylthio)-7-(4-chloro-3-methoxyphenyl)-1-(4-fluorophenyl)-4,5,6,7-tetrahydro-1H-benzo[d]imidazole trifluoroacetic acid] | 0.45 µM | > 50 µM
